Legend:
[1] = Single ascending dose study in pre- and post-menopausal women, pharmacokinetics; type: in vivo, human; conditions: for AUC(0-t): AUC (0-tlast) Mean; for Cmax: Cmax Mean
Text: The drug concentration in plasma and/or serum samples can be determined by a number of different ways, e.g. HPLC or LC-MS/MS analyses. […]
A minimal toxic dose (MTD) was not reached. […] Table 3 presents the PK parameters based on preliminary analysis of the concentration-time profile obtained from this study.

[2] = Human ADME study, single oral dose of 1 mg 14C-CGP47645 in healthy postmenopausal women; type: in vivo
Text: The study was a single dose, single group, open label ADME study of 8 healthy postmenopausal women. […] The study design consisted of a 28-day screening period, one baseline visit (Day −1), a domiciled period beginning from admission on Day −1 through discharge on Day 7, 2 outpatient visits for PK blood collection on Days 14 (±1) and 21 (±1), 2 subject specific adipose tissue collection visits, and an end-of-study 6 month safety follow-up visit.
The primary goal of this study was to assess the partitioning of CGP47645 into abdominal adipose tissue as a measure of peripheral tissue targeting and to assess whether there may be a longer T½ metabolite, as well as to elucidate the metabolic profile, obtain information on routes of excretion and mass balance. Adipose tissue samples were collected in a sparse sampling protocol, where each subject underwent two collections of adipose tissue, with each subject biopsied at different times.

[3] = biological target: T1, human placental microsomal aromatase (Homo sapiens, UniProt P11511); conditions: microsomal fraction of human placenta; Batzl-Hartmann et al, 1994; cited from earlier work
T1 construct: from tissue; host or cells: human placenta, microsomal fraction
T1 sequence (P11511 1-503): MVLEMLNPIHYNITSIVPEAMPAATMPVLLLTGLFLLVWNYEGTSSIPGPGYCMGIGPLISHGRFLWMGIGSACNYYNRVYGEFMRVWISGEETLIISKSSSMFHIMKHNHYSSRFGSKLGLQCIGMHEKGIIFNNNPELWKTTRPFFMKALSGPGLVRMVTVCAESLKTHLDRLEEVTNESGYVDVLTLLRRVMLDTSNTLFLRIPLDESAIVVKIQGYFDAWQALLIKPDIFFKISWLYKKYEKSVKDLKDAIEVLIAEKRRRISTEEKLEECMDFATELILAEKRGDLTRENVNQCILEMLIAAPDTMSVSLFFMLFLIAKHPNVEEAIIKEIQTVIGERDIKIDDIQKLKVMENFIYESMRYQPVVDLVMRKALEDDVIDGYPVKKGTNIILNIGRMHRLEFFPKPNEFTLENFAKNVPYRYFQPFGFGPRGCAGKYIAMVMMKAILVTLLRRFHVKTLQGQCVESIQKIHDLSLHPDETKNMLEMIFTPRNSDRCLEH

[4] = female, human, in vivo, 0.01 mg
[5] = female, human, in vivo, 0.03 mg

Compound: N#Cc1ccc(C(F)(c2ccc(C#N)cc2)n2cncn2)cc1 [CGP47645, 4,4′-[fluoro-(1-H-1,2,4-triazol-1-yl)methylene]bisbenzonitrile]
- Tmax [1, 4]: 0.0417 days
- AUC(0-t) [1, 4]: 1.4 ng·h/mL
- Cmax [1, 4]: 0.2 ng/mL
- half-life ([1]; female, human, in vivo, 0.01 mg, T1/2 Mean): 2.3 days
- AUC(0-t) [1, 5]: 24.1 ng·h/mL
- Cmax [1, 5]: 0.4 ng/mL
- half-life ([1]; female, human, in vivo, 0.03 mg, T1/2 Mean): 16.5 days
- T1/2 Mean ([1]; female, human, in vivo, 0.1 mg): 23.5 days
- Tmax ([1]; female, human, in vivo, 0.1 mg): 0.0417 days
- Tmax Median ([1]; female, human, in vivo, 0.1 mg): 0.042 days
- AUC(0-t) ([1]; female, human, in vivo, 0.1 mg): 123 ng·h/mL
- Cmax ([1]; female, human, in vivo, 0.1 mg): 1.8 ng/mL
- half-life ([1]; female, human, in vivo, 0.1 mg, T1/2 Mean): 18.2 days
- Tmax ([1]; female, human, in vivo, 0.3 mg): 0.0417 days
- AUC(0-t) ([1]; female, human, in vivo, 0.3 mg): 605 ng·h/mL
- Cmax ([1]; female, human, in vivo, 0.3 mg): 5.1 ng/mL
- half-life ([1]; female, human, in vivo, 0.3 mg, T1/2 Mean): 23.5 days
- Tmax ([1]; female, human, in vivo, 1 mg): 0.0417 days
- AUC(0-t) ([1]; female, human, in vivo, 1 mg): 3200 ng·h/mL
- Cmax ([1]; female, human, in vivo, 1 mg): 12.8 ng/mL
- half-life ([1]; female, human, in vivo, 1 mg, T1/2 Mean): 22.4 days
- Tmax ([1]; female, human, in vivo, 3 mg): 0.0417 days
- AUC(0-t) ([1]; female, human, in vivo, 3 mg): 10100 ng·h/mL
- Cmax ([1]; female, human, in vivo, 3 mg): 38.4 ng/mL
- half-life ([1]; female, human, in vivo, 3 mg, T1/2 Mean): 25 days
- Tmax ([1]; female, human, in vivo, 10 mg): 0.0833 days
- AUC(0-t) ([1]; female, human, in vivo, 10 mg): 41700 ng·h/mL
- Cmax ([1]; female, human, in vivo, 10 mg): 124 ng/mL
- half-life ([1]; female, human, in vivo, 10 mg, T1/2 Mean): 27.3 days
- Tmax ([1]; female, human, in vivo, 20 mg): 0.0833 days
- AUC(0-t) ([1]; female, human, in vivo, 20 mg): 76700 ng·h/mL
- Cmax ([1]; female, human, in vivo, 20 mg): 270 ng/mL
- half-life ([1]; female, human, in vivo, 20 mg, T1/2 Mean): 26.9 days
- half-life ([1]; female, human, in vivo, half life): ~25 days
- half-life ([1]; female, human, in vivo, half-life in serum): 22 to 29 days
- Tmax ([1]; female, human, in vivo, po): 0.021 to 0.083 days
- median Tmax ([1]; female, human, in vivo, po): ≤ 0.042 days
- half-life ([1]; female, human, in vivo, po, half-life): 23 to 27 days
- differences in pharmacokinetics between post- and pre-menopausal women ([1]; in vivo): No differences
- dose proportionality of pharmacokinetics ([1]; single doses 0.01 to 20 mg, women): dose proportional pharmacokinetics
- metabolites in plasma ([2]; LSC and LC-MS): No metabolites were detected in plasma
- Kp ([2]; female, human, abdominal adipose tissue, oral, 1 mg, postmenopausal women, read-out: accumulation in fat tissue in comparison to exposure in plasma): 1 to 3
- half-life ([2]; female, human, single oral 1 mg, plasma, parent drug, read-out: terminal elimination half-life (converted)): ~28 days
- safety and tolerability ([2]; single oral 1 mg 14C-CGP47645): safe and well tolerated
- share of renally eliminated radioactivity recovered as unchanged drug ([2]; single oral 1 mg 14C-CGP47645): 16%
- share of total radioactivity excreted after 6 days that was renally eliminated ([2]; single oral 1 mg 14C-CGP47645): Approximately 84%
- absorption ([2]; single oral 1 mg, healthy postmenopausal women): fast and almost complete absorption
- duration of persistent plasma concentrations post-dose ([2]; single oral 1 mg, terminal phase): > 4000 h
- main metabolites identified in urine ([2]; three main metabolites): a carbinol derivative and two glucuronides
- mode of aromatase inhibition [3]: competitive inhibitor

Source: US9750724B2, “Use of an aromatase inhibitor for the treatment of hypogonadism and related diseases” (Mereo BioPharma 2 Limited, priority 2011, dated 2017)
